Measured values reported in ChEMBL document CHEMBL3045367, “Preparation and testing of homocubyl amines as therapeutic NMDA receptor antagonists” (Med Chem Res, 2013).

Assay: Displacement of [3H](+)-MK-801 from N-methyl D-aspartate receptor in Rattus norvegicus (rat) forebrain membranes after 90 min
Parameters: species or system Membrane

| Structure (SMILES) | IC50 [µM] | Ki [µM] |
| --- | --- | --- |
| NC1C2C3C4C1C1C2C3C41 (stereo not given) [Homocubyl-9-amine] | 843 | 615 |
| NC12C3C4C5C3C1C5C42 (stereo not given) [Cubylamine] | 259 | 189 |
| CC12CC3CC(C)(C1)CC(N)(C3)C2 [MEMANTINE] | 1.56 | 1.14 |

Continued, values first:

| IC50 [µM] | Ki [µM] | Structure (SMILES) |
| --- | --- | --- |
| 89 | 65 | NC1C2C3CC4C5CC(C1C53)C42 (stereo not given) [Trishomocubyl-4-amine] |
| 152 | 111 | NC1C2C3CC4C2C2C1C3C42 (stereo not given) [bishomocubyl-10-amine] |
